Reference: PubChem BioAssay AID256 (DTP/NCI, 2004)
Values joined by “and” are separate entries in the source; they are usually repeats but may differ in a detail not shown here. Equal entries are not always repeated. Toxic doses and inconclusive results are not listed.

System: CD2F1 mice, L1210 leukemia ip, survival T/C
Test: NCI In Vivo Anticancer Drug Screen. Data for tumor model L1210 Leukemia (intraperitoneal) in CD2F1 (CDF1) mice
Settings: higher = longer survival
Method in brief: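 Tumor-bearing mice (transplanted tumor) were split into treated and vehicle control groups, and the measured endpoint of each treated group was divided by that of its vehicle controls.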

[1] = endpoint: mean survival time, dose: 100.0 mg/kg/injection, schedule: Q04DX003 (ip), vehicle: saline with Tween-80
[2] = endpoint: mean survival time, dose: 200.0 mg/kg/injection, schedule: Q04DX003 (ip), vehicle: saline with Tween-80
[3] = endpoint: mean survival time, dose: 400.0 mg/kg/injection, schedule: Q04DX003 (ip), vehicle: saline with Tween-80
[4] = endpoint: mean survival time, dose: 100.0 mg/kg/injection, schedule: Q04DX003 (ip), vehicle: Klucel (hydroxypropylcellulose) (HPC)
[5] = endpoint: mean survival time, dose: 200.0 mg/kg/injection, schedule: Q04DX003 (ip), vehicle: Klucel (hydroxypropylcellulose) (HPC)
[6] = endpoint: mean survival time, dose: 200.0 mg/kg/injection, schedule: Q01DX001 (ip), vehicle: saline with Tween-80
[7] = endpoint: mean survival time, dose: 400.0 mg/kg/injection, schedule: Q01DX001 (ip), vehicle: saline with Tween-80
[8] = endpoint: mean survival time, dose: 100.0 mg/kg/injection, schedule: Q01DX001 (ip), vehicle: saline
[9] = endpoint: mean survival time, dose: 200.0 mg/kg/injection, schedule: Q01DX001 (ip), vehicle: saline
[10] = endpoint: mean survival time, dose: 400.0 mg/kg/injection, schedule: Q01DX001 (ip), vehicle: saline
[11] = endpoint: mean survival time, dose: 100.0 mg/kg/injection, schedule: Q01DX001 (ip), vehicle: saline with Tween-80

For `CCOC(=O)c1c(C)[nH]c(C(=O)C(N=O)C(=O)OCC)c1C` (stereo not drawn), the T/C [1] was 101 % of control, the T/C [2] was 97 % of control and the T/C [3] was 97 % of control.

`O=C(O)CCCCCCCCC#CC#CCCCc1ccccc1` was tested, and the T/C [4] was 95 % of control, the T/C [5] was 95 % of control and the T/C (endpoint: mean survival time, dose: 400.0 mg/kg/injection, schedule: Q04DX003 (ip), vehicle: Klucel (hydroxypropylcellulose) (HPC)) was 97 % of control.

With `NC(=O)Cc1c(Cl)n(-c2ccccc2)c2ccccc12` the T/C (endpoint: mean survival time, dose: 50.0 mg/kg/injection, schedule: Q04DX003 (ip), vehicle: Klucel (hydroxypropylcellulose) (HPC)) was 95 % of control, the T/C [4] was 102 % of control and the T/C [5] was 95 % of control.

In the case of `CCOC(=O)c1ccc(N)cc1`, the T/C (endpoint: mean survival time, dose: 12.5 mg/kg/injection, schedule: Q01DX001 (ip), vehicle: saline with Tween-80) was 106 % of control, the T/C (endpoint: mean survival time, dose: 25.0 mg/kg/injection, schedule: Q01DX001 (ip), vehicle: saline with Tween-80) was 100 % of control and the T/C (endpoint: mean survival time, dose: 50.0 mg/kg/injection, schedule: Q01DX001 (ip), vehicle: saline with Tween-80) was 100 % of control. The T/C (endpoint: mean survival time, dose: 75.0 mg/kg/injection, schedule: Q01DX001 (ip), vehicle: other) was 97 % of control, the T/C (endpoint: mean survival time, dose: 75.0 mg/kg/injection, schedule: Q04DX003 (ip), vehicle: saline with Tween-80) was 93 % of control and the T/C (endpoint: mean survival time, dose: 150.0 mg/kg/injection, schedule: Q01DX001 (ip), vehicle: other) was 103 % of control. The T/C (endpoint: mean survival time, dose: 150.0 mg/kg/injection, schedule: Q04DX003 (ip), vehicle: saline with Tween-80) was 100 % of control, the T/C [6] was 226 % of control and 96 % of control and the T/C [7] was 100 % of control and 103 % of control.

In the case of `Nc1cc(C(Br)(Br)Br)nc2ccccc12`, the T/C (endpoint: mean survival time, dose: 75.0 mg/kg/injection, schedule: Q01DX001 (ip), vehicle: saline) was 103 % of control.

`CCOC(=O)c1cc(-c2ccccc2)nc2c(Cl)cc(Cl)cc12` was tested, and the T/C [8] was 94 % of control, the T/C [9] was 90 % of control and the T/C [10] was 96 % of control.

`NS(=O)(=O)c1cccc(C(=O)O)c1` was tested, and the T/C [11] was 98 % of control, the T/C [6] was 94 % of control and the T/C [7] was 98 % of control.

In the case of `Cc1cccc2c1NC(=O)C2=O`, the T/C (endpoint: median survival time, dose: 100.0 mg/kg/injection, schedule: Q04DX002 (ip), vehicle: saline with Tween-80) was 94 % of control and the T/C (endpoint: median survival time, dose: 400.0 mg/kg/injection, schedule: Q04DX002 (ip), vehicle: saline with Tween-80) was 105 % of control.

`CC1OC(OC2C(O)CC(OC3C(O)CC(OC4CCC5(C)C(CCC6C5CCC5(C)C(C7=CC(=O)OC7)CCC65O)C4)OC3C)OC2C)CC(O)C1O` (stereo not drawn) was tested, and the T/C (endpoint: median survival time, dose: 0.5 mg/kg/injection, schedule: Q01DX005 (iv), vehicle: water) was 109 % of control, the T/C (endpoint: median survival time, dose: 0.5 mg/kg/injection, schedule: Q01DX010 (ip), vehicle: water) was 106 % of control and the T/C (endpoint: median survival time, dose: 1.0 mg/kg/injection, schedule: Q01DX005 (iv), vehicle: water) was 108 % of control. For the same molecule, the T/C (endpoint: median survival time, dose: 1.0 mg/kg/injection, schedule: Q01DX010 (ip), vehicle: water) was 108 % of control, the T/C (endpoint: median survival time, dose: 1.0 mg/kg/injection, schedule: Q04DX003 (ip), vehicle: water) was 101 % of control and the T/C (endpoint: median survival time, dose: 1.0 mg/kg/injection, schedule: Q04DX003 (iv), vehicle: water) was 111 % of control. For the same molecule, the T/C (endpoint: median survival time, dose: 2.0 mg/kg/injection, schedule: Q01DX005 (iv), vehicle: water) was 97 % of control, the T/C (endpoint: median survival time, dose: 2.0 mg/kg/injection, schedule: Q01DX010 (ip), vehicle: water) was 109 % of control and the T/C (endpoint: median survival time, dose: 2.0 mg/kg/injection, schedule: Q04DX003 (ip), vehicle: water) was 101 % of control. The T/C (endpoint: median survival time, dose: 2.0 mg/kg/injection, schedule: Q04DX003 (iv), vehicle: water) was 109 % of control, the T/C (endpoint: median survival time, dose: 4.0 mg/kg/injection, schedule: Q01DX005 (iv), vehicle: water) was 108 % of control and the T/C (endpoint: median survival time, dose: 4.0 mg/kg/injection, schedule: Q01DX010 (ip), vehicle: water) was 108 % of control. The T/C (endpoint: median survival time, dose: 4.0 mg/kg/injection, schedule: Q04DX003 (ip), vehicle: water) was 107 % of control, the T/C (endpoint: median survival time, dose: 4.0 mg/kg/injection, schedule: Q04DX003 (iv), vehicle: water) was 110 % of control and the T/C (endpoint: median survival time, dose: 8.0 mg/kg/injection, schedule: Q01DX005 (iv), vehicle: water) was 90 % of control. For the same molecule, the T/C (endpoint: median survival time, dose: 8.0 mg/kg/injection, schedule: Q04DX003 (ip), vehicle: water) was 98 % of control, the T/C (endpoint: median survival time, dose: 8.0 mg/kg/injection, schedule: Q04DX003 (iv), vehicle: water) was 110 % of control and the T/C (endpoint: median survival time, dose: 16.0 mg/kg/injection, schedule: Q04DX003 (ip), vehicle: water) was 101 % of control. The T/C (endpoint: median survival time, dose: 16.0 mg/kg/injection, schedule: Q04DX003 (iv), vehicle: water) was 76 % of control.

For `O=C(CCN1CC1)NCCCCCCCCNC(=O)CCN1CC1`, the T/C (endpoint: mean survival time, dose: 22.0 mg/kg/injection, schedule: Q01DX001 (ip), vehicle: carboxymethylcellulose (CMC)) was 101 % of control, the T/C (endpoint: mean survival time, dose: 33.0 mg/kg/injection, schedule: Q01DX001 (ip), vehicle: carboxymethylcellulose (CMC)) was 112 % of control and the T/C (endpoint: mean survival time, dose: 50.0 mg/kg/injection, schedule: Q01DX001 (ip), vehicle: carboxymethylcellulose (CMC)) was 113 % of control.

With `O=C(Nc1cc(Cl)ccc1C(=O)O)c1cccc(C[n+]2ccccc2)c1` the T/C (endpoint: median survival time, dose: 50.0 mg/kg/injection, schedule: Q01DX005 (ip), vehicle: saline with Tween-80) was 105 % of control, the T/C (endpoint: median survival time, dose: 100.0 mg/kg/injection, schedule: Q01DX005 (ip), vehicle: saline with Tween-80) was 98 % of control and the T/C (endpoint: median survival time, dose: 200.0 mg/kg/injection, schedule: Q01DX005 (ip), vehicle: saline with Tween-80) was 95 % of control. For the same molecule, the T/C (endpoint: median survival time, dose: 400.0 mg/kg/injection, schedule: Q01DX005 (ip), vehicle: saline with Tween-80) was 91 % of control.

For `CC(C)(C)OC(=O)NC(CCCCNC(=O)OCc1ccccc1)C(=O)Oc1ccc([N+](=O)[O-])cc1` (stereo not drawn), the T/C [1] was 91 % of control, the T/C [2] was 86 % of control and the T/C [3] was 86 % of control.

For `COc1ccc(C2(C)OCCCC2([NH-])C[NH-])cc1.[Cl][Pt+2][Cl]` (stereo not drawn), the T/C (endpoint: median survival time, dose: 10.0 mg/kg/injection, schedule: Q04DX003 (ip), vehicle: saline) was 105 % of control, the T/C (endpoint: median survival time, dose: 20.0 mg/kg/injection, schedule: Q04DX003 (ip), vehicle: saline) was 103 % of control and the T/C (endpoint: median survival time, dose: 40.0 mg/kg/injection, schedule: Q04DX003 (ip), vehicle: saline) was 105 % of control. The T/C (endpoint: median survival time, dose: 80.0 mg/kg/injection, schedule: Q04DX003 (ip), vehicle: saline with Tween-80) was 100 % of control, the T/C (endpoint: median survival time, dose: 80.0 mg/kg/injection, schedule: Q04DX003 (ip), vehicle: saline) was 95 % of control and the T/C (endpoint: median survival time, dose: 160.0 mg/kg/injection, schedule: Q04DX003 (ip), vehicle: saline with Tween-80) was 110 % of control. The T/C (endpoint: median survival time, dose: 320.0 mg/kg/injection, schedule: Q04DX003 (ip), vehicle: saline with Tween-80) was 115 % of control.

For `CC(=O)OC1CCC2(C)C(=CC=C3C2CCC2(C)C3CCC2C(C)/C=C/C(C)C(C)C)C1` (stereo not drawn), the T/C (endpoint: mean survival time, dose: 50.0 mg/kg/injection, schedule: Q01DX009 (ip), vehicle: Klucel (hydroxypropylcellulose) (HPC)) was 89 % of control, the T/C (endpoint: mean survival time, dose: 100.0 mg/kg/injection, schedule: Q01DX009 (ip), vehicle: Klucel (hydroxypropylcellulose) (HPC)) was 101 % of control and the T/C (endpoint: mean survival time, dose: 200.0 mg/kg/injection, schedule: Q01DX009 (ip), vehicle: Klucel (hydroxypropylcellulose) (HPC)) was 93 % of control.

`CCOC(=O)CCC(N)C(=O)OCC` (stereo not drawn) was tested, and the T/C [8] was 95 % of control, the T/C [9] was 88 % of control and the T/C [10] was 93 % of control.

`C[n+]1ccccc1SC12CC3CC(CC(C3)C1)C2` was tested, and the T/C (endpoint: mean survival time, dose: 2.5 mg/kg/injection, schedule: Q01DX009 (ip), vehicle: Klucel (hydroxypropylcellulose) (HPC)) was 98 % of control, the T/C (endpoint: mean survival time, dose: 5.0 mg/kg/injection, schedule: Q01DX009 (ip), vehicle: Klucel (hydroxypropylcellulose) (HPC)) was 98 % of control and the T/C (endpoint: mean survival time, dose: 10.0 mg/kg/injection, schedule: Q01DX009 (ip), vehicle: Klucel (hydroxypropylcellulose) (HPC)) was 103 % of control.

For `CN(C)c1ccc(NS(=O)(=O)c2ccccc2)cc1`, the T/C [11] was 103 % of control, the T/C [6] was 98 % of control and the T/C [7] was 97 % of control.

In the case of `CCN(CC)CCC(=O)Nc1cccc2c1C(=O)c1c(c(O)c3ccccc3c1O)C2=O`, the T/C (endpoint: mean survival time, dose: 6.0 mg/kg/injection, schedule: Q04DX003 (ip), vehicle: saline with Tween-80) was 100 % of control, the T/C (endpoint: mean survival time, dose: 12.0 mg/kg/injection, schedule: Q04DX003 (ip), vehicle: saline with Tween-80) was 100 % of control and the T/C (endpoint: mean survival time, dose: 24.0 mg/kg/injection, schedule: Q04DX003 (ip), vehicle: saline with Tween-80) was 100 % of control. For the same molecule, the T/C (endpoint: mean survival time, dose: 48.0 mg/kg/injection, schedule: Q04DX003 (ip), vehicle: saline with Tween-80) was 103 % of control.

With `Nc1c(C(=O)NOCc2ccccc2)ncn1C1CCCC1` the T/C (endpoint: mean survival time, dose: 50.0 mg/kg/injection, schedule: Q01DX001 (ip), vehicle: other) was 104 % of control and the T/C (endpoint: mean survival time, dose: 100.0 mg/kg/injection, schedule: Q01DX001 (ip), vehicle: other) was 102 % of control.

`CN(C)C(=O)Sc1ccc(N(C)C)cc1` was tested, and the T/C (endpoint: mean survival time, dose: 200.0 mg/kg/injection, schedule: Q04DX002 (ip), vehicle: saline with Tween-80) was 107 % of control and the T/C (endpoint: mean survival time, dose: 400.0 mg/kg/injection, schedule: Q04DX002 (ip), vehicle: saline with Tween-80) was 107 % of control.
